SMILES strings stand for the structures.

Experiment [1] deals with lipid droplets in SH-SY5Y cells. Briefly: Reduction of OA-induced lipid droplets in SH-SY5Y cells. Format: cell-based, human. As to conditions: unconjugated compound 5 μM. An excerpt:
The reduction of lipid droplets in SH-SY5Y cells by Compound 1A and Compound 2A was detected by a method that was similar to Example 2, and the result was shown in FIG. 18.
The effects of unconjugated LC3 binding Compound A1, A5 and unconjugated lipid droplet probe ORBB […] respectively on lipid droplets in SH-SY5Y cells (FIG. 20A) and MEF cells (FIG. 20B) were detected by a method similar to Example 2.

The test system of experiment [2] is lipid droplets in human normal liver cell line QSG7701. Nature of the experiment: Endogenous lipid droplets in human normal liver cell line QSG7701. It is filed as cell-based. As to conditions: QSG7701, no induction, 5 μM, 24 h. Here is the method: 10% FBS+90% RPMI 1640 culture medium was used for cultivation, cell incubator culture condition of 37° C. and 5% CO2 was used. Cells were plated as 50 thousands/well (12 well plate was plated with aseptic treated slides). When cells grew to a confluence of 80-90%, the compound (Compound 1A or Compound 2A, at a concentration of 5 μM) was added for treatment, and LC3 binding Compound A1, A5, lipid droplet probe Sudan IV as well as DMSO acted as a control. […]. In the compounds of present disclosure, LC3 binding moiety was covalently linked with lipid droplet binding moiety, and thus could achieve the effect of reducing liver cell endogenous lipid droplet.

The subject of experiment [3] is lipid droplets in wild type MEF cells. Briefly: Reduction of OA-induced lipid droplets in wild type MEF cells (BODIPY 493/503 staining). It is filed as cell-based, mouse. Conditions: MEF, unconjugated compound 5 μM. Here is the method: (5) OA-BSA stock solution was prepared into OA-BSA working solution (50× final concentration, 200 μM), and 40 μl of OA-BSA working solution was added to each well to induce lipid droplets. For the non-OA induction group, 40 μl of 10% BSA solution was added to the control well, and the amount of BSA was the same as that of the experimental group.
Compounds were formulated into DMSO stock solutions. Stock compounds were diluted with DMSO into the indicated concentrations of working solutions prior to use in the treatment of cells. After induction of the lipid droplets with OA for the indicated time, the test compounds were added to the cells respectively. Control wells were replaced with the equal volume of DMSO. Unless otherwise stated, the compounds were diluted into 10× solutions using the culture medium and added to the culture medium for 24 hours of incubation. Cells were treated with compounds in a 37° C. incubator with 5% CO2.
(3) The original medium in the multi-well plates was removed, washed and the cells was fixed, 1 ml of the BODIPY solution prepared in (1) was added to each well, and stained for 15 minutes. The staining solution was aspirated and washed with 1×PBS.
(5) The coverslips laid in the multi-well plates were removed, and imaged with the Zeiss 880 confocal microscope after mounted, and analyzed the size and number of lipid droplets with ImageJ.
Wild type MEF cells were cultured in a DMEM culture medium containing 10% FBS. Cells were plated according to the method as described above (12 well plate was plated with aseptic treated slides). When cells grew to a confluence of 60-70%, lipid droplets were induced with OA for 30 h according to the method as described above.
At the time point of 6th hour after initiation of induction, the cells were treated (treated for 24 hours) with Compound 1A or Compound 2A (compound concentrations were 50 μM, 15.8 μM, 5 μM, 1.58 μM, 0.5 μM, 0.158 μM) according to the method as described above.

The test system of experiment [4] is autophagosome-lipid droplet colocalization in MEF cells. Nature of the experiment: Colocalization of autophagosome and lipid droplets in mCherry-LC3B transfected MEF cells. Format: cell-based, mouse. Conditions: 5 μM, 3 h, compared to DMSO control. Summed up:
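mCherry-LC3B expressed in MEF cells by plasmid transfection; lipid droplets induced with OA at 30 h post-transfection, compound added 6 h later for 3 h. Cells fixed, stained with BODIPY and DAPI, and LC3 puncta around lipid droplets imaged by confocal microscopy.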

The target of experiment [5] is LC3 (Homo sapiens, UniProt Q9GZQ8). Conditions: reported by Li et al., Nature 575, 203-209 (2019); cited from earlier work.

Take `O=C1Nc2ccc(I)cc2C1=Cc1cc(Br)c(O)c(Br)c1` [Compound A1, 3-(3,5-dibromo-4-hydroxylbenzylidene)-5-iodoindolin-2-one, reference compound]: the “lipid droplets (number and size)” value in experiment [1] and in experiment [3] was “did not significantly decrease or become smaller” in each case. The “endogenous lipid droplets (amount)” value in experiment [2] is on record as “no significant effect”. Besides, the “ratio of colocalization of red and green aggregation point (autophagosome-lipid droplet)” value in experiment [4] is “No such effect”. In addition, the “binding to LC3” value in experiment [5] was “can bind to LC3 with affinity”.
